Measured values reported in patent publication US20190350885A1, “PROPHYLAXIS TREATMENT FOR ACUTE MYELOID LEUKEMIA” (Indiana University Research and Technology Corporation, priority 2017, published 2019).
“Also recorded” adds a separate entry of the source.

How the values were obtained:
[1] = test system: Tet2-KO Lin-negative bone marrow cells; assay: CFU (colony forming unit) assay, primary and secondary replating; type: cell-based, mouse; details: primary and secondary plating, in vitro
Excerpt: CFU assay. Bone marrow Lin-negative cells or LSK cells were isolated as described above and platted in a CFU assay using MethoCult™ GF M3434 (Stem Cell). Colonies were counted after 7-days of culture.

Morrbid promoter = assay: CHIP-qPCR assay of IκBζ and Stat3 binding; type: cell-based, mouse; details: Tet2-KO Lin-negative bone marrow cells
Excerpt: CHIP-qPCR assay. BM Lin-negative cells were used to extract chromatin DNA using MAGnify™ Chromatin Immunoprecipitation System (ThermoFisher) according to the manufacturer's instruction. CHIP purified chromatin DNA and input DNA were normalized to identical concentration for qPCR validation and enrichment analysis (1% enrichment of input level was defined as unit 1). The following antibodies were used for chromatin precipitation:Anti-IκBζ and Anti-Stat3 (Cell Signaling Technologies).

aged Tet2-KO mice = assay: Treatment of aged Tet2-KO mice with early signs of MPN; type: in vivo, mouse; details: for frequency of LSKs and CMPs / neutrophil counts (absolute numbers, burden) in peripheral blood / neutrophil frequency (percentage) in peripheral blood / platelet counts / red blood cell (RBC) counts (anemia) / serum IL-6 levels / spleen weight / splenomegaly / white blood cell (WBC) burden/count: treatment for 14 days; for early signs of MPN: aged Tet2-KO mice
Protocol: (§1) Lipopolysaccharide (LPS) was purchased from Sigma (Cat # L8643) and dissolved in sterile phosphate-buffered saline (PBS) prior to being given to the mice for one dose only (0.8 mg/kg, i.p.). APX3330 (also referred to herein as E3330) was dissolved in Cremophor:EtOH (1:1) (Cremophor were purchased from Sigma, Cat # C5135) for making solution stock and then diluted in PBS prior to be used for pre-LPS treatment or post-LPS treatment (20 mg/kg, twice a day, i.p.). SHP099 (provided by Norvartis), was dissolved in 0.5% Methylcellulose (Sigma, Cat# M0262) and 0.1% Tween-80 (Fisher Scientific, Cat #BP338-500) and fed to animals by gavage (daily, 50 mg/kg). Male and female mice between 3-4 weeks (juvenile mice) or 8-16 weeks (adult mice) of age were used for LPS or LPS plus APX3330 experiments. Age and sex matched mice were always used as naïve (Day 0) controls. Aged Tet2-KO mice (male or female, 6-8 months of age) were used for APX3330 or SHP099 treatment in FIGS. 11A-11D.
(§2) Hematological analysis on peripheral blood (PB, from tail-bleeding) was run by an automated cell counter machine (Drew Hemavet 950). Total bone marrow (BM) cells were harvested from two femurs and two tibias of mice and filtered on 50-μm sterile filters. BM cells were always kept on ice or in refrigeration and stored in sterile blocking buffer containing 2% rat-serum prior to analysis. BM cellularity (viable cell counts) was analyzed by an automated cell counter (Beckman the Vi-CELL™ Cell Counter for Cell Viability Analyzer).
(§3) Flow cytometry. Non-lysed BM cells were used for analysis of erythroid lineage and progenitor cells (Ter119 and CD71 staining). Remaining flow cytometry analysis was performed on lysed bone marrow cells (Lysis Buffer, BD, Cat #555899). Antibodies against Ter119, Mac1, Gr1, B220, CD3, CD4 and CD8 were used for mature cells labeling (Linage labeling). Progenitor cells were labeled and analyzed by indicated markers. Antibody-labeled BM cells were run on a BD FACS-CANTO II machine with a two-laser and six-filter configuration. The properly compensated flow data were analyzed by Flow Jo software (V10.2). Events plotting, calculation of frequency and mean of fluorescence intensity (MFI), and histogram overlaying were analyzed by Flow Jo software.
Multiplex cytokine assays. Serum samples were prepared from PB (tail-bleeding) and diluted in sterile PBS (1 to 2 dilution(s)). Thirty-one cytokines or chemokines were quantified by multiplex immunoassay with a BioPlex 200 instrument (Eve Technologies, Mouse Cytokine Array/Chemokine Array 31-Plex, Cat # MD31).
Statistics. All experimental procedures on Tet2-KO samples were run in parallel with wildtype controls (sex and age matched littermate controls when possible) for observing experimental variabilities. Analysis of grouped data was not blinded and no samples were excluded. Aged Tet2-KO mice were randomized into two groups for treatment with APX3330 or vehicle, SHP099 or vehicle (FIGS. 11A-11D). P-value was calculated using an unpaired t-test for comparing means of two groups (GraphPad Prism 6.0). Error bars in FIGS. 1-10 and 11A indicate the standard error of mean (s.e.m.) while error bars in FIG. 11C indicate the standard deviation (s.d.). Except that the secondary cBMT was performed in only one independent experiment for each group, all other assays were performed in at least two independent experiments with at least 3-5 biological replicates in total.
Furthermore, aged Tet2-KO maintained higher level of serum IL-6 compared to wildtype mice (FIG. 13H). 6-month old Tet2-KO mice were treated with APX3330 or SHP099 to assess the potential therapeutic benefit of these drugs in older mice (daily treatment for 14 days, FIG. 13I).

Tet2-KO mice = assay: LPS-induced acute inflammation (emergency granulopoiesis/hematopoiesis) in mice; type: in vivo, mouse; details: for LPS-induced expansion of LSK cells in bone marrow / LPS-induced emergency neutrophil production in peripheral blood (emergency granulopoiesis): LPS 0.8 mg/kg i.p. one dose, drug two days before and two days after LPS, day 2 post LPS; for LPS-induced emergency neutrophil production in peripheral blood (emergency granulopoiesis): APX3330 20 mg/kg twice a day i.p., SHP099 50 mg/kg daily gavage
Excerpt: Mice, LPS treatment and peripheral blood analysis. All mice were bred and maintained under specified pathogen-free (SPF) conditions at an animal facility at Indiana University School of Medicine. Experiments with mice were approved by the Institutional Animal Care and Use Committee (IACUC) of Indiana University School of Medicine. Tet2-knockout mice (Tet2^−/−, or Tet2-KO, CD45.2) is on C57BL/6 genetic background and has been previously described in Li et al., Blood 118, 4509-4518 (2011). Normal C57BL/6 (wild type, CD45.2) mice were purchased from The Jackson Laboratory and used as controls for all experiments. Whenever possible littermates were used as controls for all experiments.
as §1, §2, §3
It was next examined if APX3330 or SHP099 could repress inflammation and “emergency hematopoiesis” in Tet2-KO mice in vivo. It was first assessed if APX3330 or SHP099 could normalize LPS-induced acute inflammation. Before challenging the mice with LPS, wildtype and Tet2-KO mice were prophylactically treated with APX3330 or SHP099 for two days. Post LPS treatment, APX3330 or SHP099 was continuously injected in these mice for another two days (FIG. 13A). On day 2, post LPS treatment, mice were sacrificed and analyzed.

phospho-Stat3 = phospho-Stat3 expression in Tet2-KO Lin-negative cells; type: cell-based, mouse
[2] = aged (6-month old) Tet2-KO mice
[3] = aged (6-month old) Tet2-KO mice, listed as E3330

Compound	colony forming ability (CFU formation) [1]	IκBζ and Stat3 binding to Morrbid promoter (Morrbid promoter)	frequency of LSKs and CMPs (aged Tet2-KO mice; [2])	neutrophil counts (absolute numbers, burden) in peripheral blood (aged Tet2-KO mice; [2])	neutrophil frequency (percentage) in peripheral blood (aged Tet2-KO mice; [2])	platelet counts (aged Tet2-KO mice; [2])	red blood cell (RBC) counts (anemia) (aged Tet2-KO mice; [2])	serum IL-6 levels (aged Tet2-KO mice; [2])	spleen weight / splenomegaly (aged Tet2-KO mice; [2])	white blood cell (WBC) burden/count (aged Tet2-KO mice; [2])	early signs of MPN (aged Tet2-KO mice)	LPS-induced expansion of LSK cells in bone marrow (Tet2-KO mice)	LPS-induced emergency neutrophil production in peripheral blood (emergency granulopoiesis) (Tet2-KO mice)	further results
CCCCCCCCCC(=CC1=C(C)C(=O)C(OC)=C(OC)C1=O)C(=O)O [APX3330]	normalization of colony formation; also recorded: block the enhanced colony forming activity	reduced IKBζ and Stat3 binding to Morrbid promoter	failed to reverse	significantly reduced	significantly reduced	restored	restores; also recorded: rescued to normal levels	reduced	a reduction in spleen weight was also observed in drug treated Tet2-KO mice, although it did not reach statistical significance; also recorded: failed to alter splenomegaly	significantly reduce; also recorded: restores	reverses early signs of MPN	significant correction; also recorded: effectively repressed; also recorded: represses the expansion of LSK cells	significant correction in the enhanced production of neutrophils; also recorded: effectively repressed; also recorded: represses emergency neutrophil production	colony forming ability (CFU formation) ([1]; listed as E3330): corrected the enhanced colony forming ability; IκBζ and Stat3 binding to Morrbid promoter (Morrbid promoter; listed as E3330): rescues the enhanced binding of IκBζ and Stat3 to the Morribid promoter; hematocrits (HCT) (aged Tet2-KO mice; [2]): rescued to normal levels; neutrophil counts (absolute numbers, burden) in peripheral blood (aged Tet2-KO mice; [3]): rescue; neutrophil frequency (percentage) in peripheral blood (aged Tet2-KO mice; [3]): rescue; serum IL-6 levels (aged Tet2-KO mice; [3]): rescue; early signs of MPN (aged Tet2-KO mice; listed as E3330): reversed early signs of MPN; LPS-induced emergency neutrophil production in peripheral blood (emergency granulopoiesis) (Tet2-KO mice; listed as E3330): repressed; LPS-induced expansion of LSK cells in bone marrow (Tet2-KO mice; listed as E3330): repressed; bone marrow cellularity (Tet2-KO mice; LPS-treated wild type and Tet2-KO mice, short-term treatment): maintained normal bone marrow cellularity
CC1(N)CCN(c2cnc(-c3cccc(Cl)c3Cl)c(N)n2)CC1 [SHP099, 6-(4-amino-4-methyl-1-piperidinyl)-3-(2,3-dichlorophenyl)-2-pyrazinamine]	decreased; also recorded: block the enhanced colony forming activity; also recorded: corrected the enhanced colony forming ability	decreased; also recorded: rescues the enhanced binding of IκBζ and Stat3 to the Morribid promoter	failed to reverse	significantly reduce; also recorded: rescue	rescue	restored	restores	reduced; also recorded: rescue	a reduction in spleen weight was also observed in drug treated Tet2-KO mice, although it did not reach statistical significance	significantly reduce; also recorded: restores	reversed early signs of MPN	significant correction; also recorded: effectively repressed	significant correction in the enhanced production of neutrophils; also recorded: effectively repressed	expression of phospho-Stat3 (phospho-Stat3): decreased expression of phospho-Stat3
